Experimental data: patent US20060078629A1, “Nutritional compositions and use thereof” (priority 2003, published 2006)

How the values were obtained:
[1] = tested on: chemically induced cancers; details: in vivo; cited from earlier work
[2] = tested on: DNA damage in various tissues; details: Food Chem Toxicol 2000, 38:15; cited from earlier work
[3] = slow (e.g. 20 minutes) intravenous injection, 400 mg glutathione in 20 ml saline
Description: According to one aspect of the invention, the intravenous administration of glutathione is used to achieve the desired blood levels. […] Repeated injections may be necessary in severely ill patients.

OCc1c[nH]c2ccccc12 [Example I3C, Indole-3-carbinol]
prevention of chemically induced cancers [1]: up to 90%
decrease of DNA damage in various tissues [2]: 67-82%

N[C@@H](CCC(=O)N[C@@H](CS)C(=O)NCC(=O)O)C(=O)O [glutathione]
achieving the desired blood glutathione levels [3]: effective
